{"source": "patent US8846066B2", "about": "“Methods and related compositions for reduction of fat and skin tightening” (The Regents of the University of California, priority 2004, dated 2014)", "key": {"WM266": {"test_system": "WM266", "test": "Killing by DC after pre-incubation with human lipoma fat, WM266", "assay_type": "cell-based", "method": "(§1) The experiment was performed on a series of immortalized melanocyte cell lines. Resected human lipomas were ground up, and DC-containing media was mixed with the human fat and agitated for 24 hours. The material was centrifuged to pellet insoluble contents. The supernatants were then added on top of cultured melanocytes. Control was the identical DC-containing media not exposed to the fat chunks. Also, fat alone (no media) was added as a control."}, "[1]": {"test_system": "Melanocytes (A375P melanoma cell line)", "test": "MTS survival of melanocytes after DC with or without 1% PC", "assay_type": "cell-based", "details": "30 min; for Melanocytes surviving in DC only: MTS OD 490 nm, single wells; for Average (DC only): mean MTS OD 490 nm", "method": "(§2) Melanocytes in melanocyte media on a 96-well dish were differentiated at 37° C. in a humidified, 5% CO2 incubator for a week. Media was aspirated and washed with 1×PBS once. Cells were treated with different concentrations of DC (from 0 to 0.5%) with or without 1% PC in 1×PBS. Each treatment was done in triplicates (Table 4). The plates were incubated at 37° C. in a humidified, 5% CO2 incubator for 30 min. The incubated plates were aspirated and washed with 1×PBS.\n(§3) 10 mL of MTS (3-(4,5-dimethyl-2-yl)-5-(3-carboxymethoxyphenyl)-2-(4-sulfophenyl)-2H-tetrazolium, inner salt) assay solution was prepared (mixed 40 uL MTS (Promega, Madison Wis.) per MeI 1×PBS). 100 ul of MTS solution was added to each well of the plates. The plates were incubated at 37° C. incubator (non-hunified) for 120 min. OD was taken with spectrophotometer at 490 nm.\n(§4) FIG. 7 illustrates the survival of melanocytes in sodium deoxycholate solution and sodium deoxycholate with 1% phosphatidylcholine solution. A375P is a melanoma cell line (P represents poorly metastatic). On y-axis, 1 represents 100% survival when no DC is added. All % concentrations are w/v %. […] The addition of sodium deoxycholate with 1% phosphatidylcholine solution increases the LD50 by ˜5-6 fold."}, "CHL": {"test_system": "CHL", "test": "Killing by DC after pre-incubation with human lipoma fat, CHL", "assay_type": "cell-based", "method": "as §1"}, "primary adipocytes": {"test_system": "primary adipocytes", "test": "MTS survival of adipocytes after DC with or without 1% PC", "assay_type": "cell-based, human", "details": "30 min; for Adipocytes surviving in DC only: MTS OD 490 nm, single wells; for Average (DC only): mean MTS OD 490 nm", "method": "as §2, with “Adipocytes” for “Melanocytes”, “adipocyte” for “melanocyte”, “5).” for “4).”\nas §3, with “1 mL” for “MeI”, “(non-humidified)” for “(non-hunified)”\nas §4, with “8” for “7”, “adipocytes” for “melanocytes”, “The adipocyte cells are primary (i.e., taken freshly from” for “A375P is”, “person) adipocytes, cultured in vitro to maturity before treatment with DC.” for “melanoma cell line (P represents poorly metastatic).”"}, "[2]": {"test_system": "HaCaT human keratinocyte cells", "test": "MTS cell viability assay in cultured HaCaT cells", "assay_type": "cell-based", "details": "for cell viability (MTS, OD 490): 30 min at 37° C.", "method": "To measure cell viability after detergent treatment, HaCaT human keratinocyte cells were cultured in DMEM (Dulbecco's modified Eagle's medium) supplemented with 10% fetal calf serum, penicillin, and streptomycin. […] Cell viability was determined by an absorbance spectrophotometer (at 490 nm) after 4 hour incubation with the assay at 37° C. To determine cell viability in fresh tissue, fat specimens were incubated for 4 hours in 24 well plates with stock reagents and the MTS assay. Tissue specimens were then visualized for color change and the amount of MTS in their supernatants was measured by absorbance (at 490 nm). All studies were performed in triplicate. Absorbance at 490 nm (OD 490) is proportional to the number of living cells in the culture."}, "lipomas": {"test_system": "lipomas", "test": "Human lipoma study with sodium deoxycholate (Example 10)", "assay_type": "in vivo", "method": "Six patients having 12 lipomas were injected with sodium deoxycholate (DC) solutions over a period of six months. […] Measurements were made by physical measurements and ultrasound imaging."}, "[3]": {"details": "DC 0.1% media not exposed to fat"}, "[4]": {"details": "single wells, DC 0.1% media not exposed to fat"}, "[5]": {"details": "single wells, supernatant of DC 0.1% media agitated 24 hours with human lipoma fat"}, "[6]": {"details": "supernatant of DC 0.1% media agitated 24 hours with human lipoma fat"}, "[7]": {"details": "Lipoma 1, pre-treatment size 1 cm, 1 treatment"}, "[8]": {"details": "Lipoma 4, pre-treatment size 4 × 3.5 cm, 4 treatments"}, "[9]": {"details": "Lipoma 5, pre-treatment size 2 × 1.8 cm, 4 treatments"}, "[10]": {"details": "Lipoma 6, pre-treatment size 2.8 cm, 1 treatment"}, "[11]": {"details": "Lipoma 7, pre-treatment size 3 × 2 cm, 2 treatments"}, "[12]": {"details": "Lipoma 8, pre-treatment size 1 cm, 2 treatments"}, "[13]": {"details": "Lipoma 10, pre-treatment size 2 cm, 2 treatments"}, "[14]": {"details": "Lipoma 12, pre-treatment size 1 cm, 1 treatment"}}, "note": "Values joined by “and” are separate entries in the source; they are usually repeats but may differ in a detail not shown here. Equal values may be shown once."}
{"compound": "C[C@H](CCC(=O)[O-])[C@H]1CC[C@H]2[C@@H]3CC[C@@H]4C[C@H](O)CC[C@]4(C)[C@H]3C[C@H](O)[C@]12C.[Na+]", "note": "[DC, sodium deoxycholate]", "values": [{"measurement": "Percentage, DC 0.1%", "setting": "WM266; Control = 1.000, DC 0.1% media not exposed to fat", "value": 0.113}, {"measurement": "Percentage, DC 0.1% + fat", "setting": "WM266; Control = 1.000, DC 0.1% media pre-incubated with human lipoma fat", "value": 0.539}, {"measurement": "Average, DC 0.1%", "setting": "WM266; [3]", "value": 0.063}, {"measurement": "Actual, DC 0.1%", "setting": "WM266; [4]", "value": "0.07 and 0.061 and 0.058"}, {"measurement": "WM266 (readings), DC 0.1%", "setting": "WM266; [4]", "value": "0.07 and 0.061 and 0.058"}, {"measurement": "Actual, DC 0.1% + fat", "setting": "WM266; [5]", "value": "0.281 and 0.308 and 0.314"}, {"measurement": "WM266 (readings), DC 0.1% + fat", "setting": "WM266; [5]", "value": "0.281 and 0.308 and 0.314"}, {"measurement": "Average, DC 0.1% + fat", "setting": "WM266; [6]", "value": 0.301}, {"measurement": "Melanocytes surviving in DC only", "setting": "[1]; DC 0.001 (w/v %)", "value": "0.158 and 0.148 and 0.16"}, {"measurement": "Melanocytes surviving in DC only", "setting": "[1]; DC 0.005 (w/v %)", "value": "0.128 and 0.109 and 0.103"}, {"measurement": "Melanocytes surviving in DC only", "setting": "[1]; DC 0.01 (w/v %)", "value": "0.124 and 0.107 and 0.106"}, {"measurement": "Melanocytes surviving in DC only", "setting": "[1]; DC 0.05 (w/v %)", "value": "0.056 and 0.038 and 0.048"}, {"measurement": "Melanocytes surviving in DC only", "setting": "[1]; DC 0.1 (w/v %)", "value": "0.009 and 0.014 and 0.016"}, {"measurement": "Average (DC only)", "setting": "[1]; DC 0.001 (w/v %)", "value": 0.1553}, {"measurement": "Average (DC only)", "setting": "[1]; DC 0.005 (w/v %)", "value": 0.1133}, {"measurement": "Average (DC only)", "setting": "[1]; DC 0.01 (w/v %)", "value": 0.1123}, {"measurement": "Average (DC only)", "setting": "[1]; DC 0.05 (w/v %)", "value": 0.04733}, {"measurement": "Average (DC only)", "setting": "[1]; DC 0.1 (w/v %)", "value": 0.013}, {"measurement": "Average (DC only)", "setting": "[1]; DC 0.5 (w/v %)", "value": 0.004}, {"measurement": "LD50 (concentration at which 50% of the cells are dead)", "setting": "[1]; melanocyte cell line, w/v %", "value": "around 0.04%"}, {"measurement": "Percentage, DC 0.1%", "setting": "CHL; Control = 1, DC 0.1% media not exposed to fat", "value": 0.098}, {"measurement": "Percentage, DC 0.1% + fat", "setting": "CHL; Control = 1, DC 0.1% media pre-incubated with human lipoma fat", "value": 0.610}, {"measurement": "Average, DC 0.1%", "setting": "CHL; [3]", "value": 0.065}, {"measurement": "Actual, DC 0.1%", "setting": "CHL; [4]", "value": "0.064 and 0.066"}, {"measurement": "CHL (readings), DC 0.1%", "setting": "CHL; [4]", "value": "0.064 and 0.066"}, {"measurement": "Actual, DC 0.1% + fat", "setting": "CHL; [5]", "value": "0.402 and 0.426 and 0.378"}, {"measurement": "CHL (readings), DC 0.1% + fat", "setting": "CHL; [5]", "value": "0.402 and 0.426 and 0.378"}, {"measurement": "Average, DC 0.1% + fat", "setting": "CHL; [6]", "value": 0.402}, {"measurement": "Adipocytes surviving in DC only", "setting": "primary adipocytes; DC 0.01 (w/v %)", "value": "0.067 and 0.133 and 0.13"}, {"measurement": "Adipocytes surviving in DC only", "setting": "primary adipocytes; DC 0.05 (w/v %)", "value": "0.01 and 0.009 and 0.008"}, {"measurement": "Adipocytes surviving in DC only", "setting": "primary adipocytes; DC 0.1 (w/v %)", "value": 0}, {"measurement": "Adipocytes surviving in DC only", "setting": "primary adipocytes; DC 0.5 (w/v %)", "value": 0}, {"measurement": "LD50 (concentration at which 50% of the fat cells are dead)", "setting": "primary adipocytes; adipocytes, w/v %", "value": "around 0.02%"}, {"measurement": "Average (DC only)", "setting": "primary adipocytes; DC 0.005 (w/v %)", "value": 0.111}, {"measurement": "Average (DC only)", "setting": "primary adipocytes; DC 0.01 (w/v %)", "value": 0.131}, {"measurement": "Average (DC only)", "setting": "primary adipocytes; DC 0.05 (w/v %)", "value": 0.09}, {"measurement": "Average (DC only)", "setting": "primary adipocytes; DC 0.1 (w/v %)", "value": 0}, {"measurement": "Average (DC only)", "setting": "primary adipocytes; DC 0.5 (w/v %)", "value": 0}, {"measurement": "cell viability (MTS, OD 490)", "setting": "[2]; 0.005% dilution", "value": "little effect"}, {"measurement": "cell viability (MTS, OD 490)", "setting": "[2]; 0.05% and 0.5% concentrations", "value": "progressively decreased"}, {"measurement": "viability of cultured cells (MTS, FIG. 2a)", "setting": "[2]; approximately equal to the complete PBF", "value": "profoundly decreased the viability of cultured cells"}, {"measurement": "Change in volume (%)", "setting": "lipomas; [7]", "value": "−100", "unit": "%"}, {"measurement": "Post-treatment size", "setting": "lipomas; [7]", "value": 0}, {"measurement": "Change in volume (%)", "setting": "lipomas; Lipoma 3, pre-treatment size 2 × 2.5 cm, 3 treatments", "value": 84, "unit": "%"}, {"measurement": "Change in volume (%)", "setting": "lipomas; [8]", "value": 84, "unit": "%"}, {"measurement": "Post-treatment size", "setting": "lipomas; [8]", "value": 2}, {"measurement": "Change in volume (%)", "setting": "lipomas; [9]", "value": 92, "unit": "%"}, {"measurement": "Post-treatment size", "setting": "lipomas; [9]", "value": 1.3}, {"measurement": "Change in volume (%)", "setting": "lipomas; [10]", "value": 99, "unit": "%"}, {"measurement": "Post-treatment size", "setting": "lipomas; [10]", "value": 0.5}, {"measurement": "Change in volume (%)", "setting": "lipomas; [11]", "value": 97, "unit": "%"}, {"measurement": "Post-treatment size", "setting": "lipomas; [11]", "value": 0.8}, {"measurement": "Change in volume (%)", "setting": "lipomas; [12]", "value": 100, "unit": "%"}, {"measurement": "Post-treatment size", "setting": "lipomas; [12]", "value": 0}, {"measurement": "Change in volume (%)", "setting": "lipomas; Lipoma 9, pre-treatment size 2 × 1 cm, 2 treatments", "value": 67, "unit": "%"}, {"measurement": "Change in volume (%)", "setting": "lipomas; [13]", "value": 73, "unit": "%"}, {"measurement": "Post-treatment size", "setting": "lipomas; [13]", "value": 1.3}, {"measurement": "Change in volume (%)", "setting": "lipomas; Lipoma 11, pre-treatment size 2 cm, 1 treatment", "value": 79, "unit": "%"}, {"measurement": "Change in volume (%)", "setting": "lipomas; [14]", "value": 50, "unit": "%"}, {"measurement": "Post-treatment size", "setting": "lipomas; [14]", "value": 0.8}, {"measurement": "size of injected lipomas", "setting": "lipomas; six patients, 12 lipomas, after at least one treatment, six months", "value": "reduced in size"}]}
